Patent US20250215012A1, “IKZF2 DEGRADERS AND USES THEREOF” (REGENTS OF THE UNIVERSITY OF MICHIGAN, priority 2022, published 2025)
pIC50: −log10 of the molar value.

Tests used:
[1] = biological target: GST-tagged wild-type human CRBN protein (Homo sapiens (Human), UniProt Q96SW2); experiment: Cereblon Binding Assay (Cisbio Cereblon Binding Kit, TR-FRET); details: about 3 hours at room temperature
Experimental: (§1) The binding to cereblon (CRBN) is determined using the Cereblon Binding Kit (Cisbio, #64BDCRBNPEG) following the manufacturer's instruction. Briefly, serially diluted compounds are incubated with GST-tagged wild-type human CRBN protein, XL665-labelled Thalidomide and Europium Cryptate labelled GST antibody.
as §1, with “(CRBN) was” for “(CRBN) is”, “compounds were” for “compounds are”, “GST antibody at room temperature for about 3 hours.” for “GST antibody.”

IKZF2 [2] = biological target: T1, IKZF2 (Homo sapiens (Human), UniProt Q96SW2+Q9UKS7); experiment: IKZF2 HiBiT Assay (Jurkat-IKZF2-HiBiT cell line); format: cell-based; details: Jurkat-IKZF2-HiBiT cells, 24 hours; for DC50: read-out: HiBit assay degradation analysis DC50; for Dmax: read-out: HiBit assay degradation analysis Dmax
T1 sequence (Q9UKS7 whole entry): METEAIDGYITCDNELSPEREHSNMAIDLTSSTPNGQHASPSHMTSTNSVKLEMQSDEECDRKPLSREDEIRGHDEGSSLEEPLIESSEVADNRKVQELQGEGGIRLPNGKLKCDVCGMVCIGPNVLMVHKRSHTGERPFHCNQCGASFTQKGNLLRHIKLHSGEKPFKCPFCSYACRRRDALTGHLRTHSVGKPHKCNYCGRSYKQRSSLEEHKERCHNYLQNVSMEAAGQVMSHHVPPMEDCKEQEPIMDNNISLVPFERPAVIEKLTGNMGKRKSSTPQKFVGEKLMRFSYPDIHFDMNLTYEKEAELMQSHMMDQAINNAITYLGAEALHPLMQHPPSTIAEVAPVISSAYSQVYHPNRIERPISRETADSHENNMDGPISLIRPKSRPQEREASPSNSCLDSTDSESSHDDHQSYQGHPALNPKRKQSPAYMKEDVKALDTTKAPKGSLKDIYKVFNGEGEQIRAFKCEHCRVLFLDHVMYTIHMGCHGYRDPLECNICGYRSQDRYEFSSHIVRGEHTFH
T1 sequence (Q96SW2 whole entry): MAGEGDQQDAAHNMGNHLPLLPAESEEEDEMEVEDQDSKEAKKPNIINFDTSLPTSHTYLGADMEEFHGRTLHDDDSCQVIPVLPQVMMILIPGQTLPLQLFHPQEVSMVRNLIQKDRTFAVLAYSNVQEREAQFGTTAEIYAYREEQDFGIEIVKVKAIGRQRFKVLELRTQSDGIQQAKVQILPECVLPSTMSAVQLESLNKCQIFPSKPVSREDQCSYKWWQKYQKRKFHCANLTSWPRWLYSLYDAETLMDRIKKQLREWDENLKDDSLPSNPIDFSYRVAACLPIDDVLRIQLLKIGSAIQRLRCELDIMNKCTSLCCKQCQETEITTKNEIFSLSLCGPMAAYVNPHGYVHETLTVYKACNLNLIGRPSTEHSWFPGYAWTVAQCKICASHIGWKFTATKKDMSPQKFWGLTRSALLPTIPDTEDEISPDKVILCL
T1 sequence (Q16531 whole entry partner): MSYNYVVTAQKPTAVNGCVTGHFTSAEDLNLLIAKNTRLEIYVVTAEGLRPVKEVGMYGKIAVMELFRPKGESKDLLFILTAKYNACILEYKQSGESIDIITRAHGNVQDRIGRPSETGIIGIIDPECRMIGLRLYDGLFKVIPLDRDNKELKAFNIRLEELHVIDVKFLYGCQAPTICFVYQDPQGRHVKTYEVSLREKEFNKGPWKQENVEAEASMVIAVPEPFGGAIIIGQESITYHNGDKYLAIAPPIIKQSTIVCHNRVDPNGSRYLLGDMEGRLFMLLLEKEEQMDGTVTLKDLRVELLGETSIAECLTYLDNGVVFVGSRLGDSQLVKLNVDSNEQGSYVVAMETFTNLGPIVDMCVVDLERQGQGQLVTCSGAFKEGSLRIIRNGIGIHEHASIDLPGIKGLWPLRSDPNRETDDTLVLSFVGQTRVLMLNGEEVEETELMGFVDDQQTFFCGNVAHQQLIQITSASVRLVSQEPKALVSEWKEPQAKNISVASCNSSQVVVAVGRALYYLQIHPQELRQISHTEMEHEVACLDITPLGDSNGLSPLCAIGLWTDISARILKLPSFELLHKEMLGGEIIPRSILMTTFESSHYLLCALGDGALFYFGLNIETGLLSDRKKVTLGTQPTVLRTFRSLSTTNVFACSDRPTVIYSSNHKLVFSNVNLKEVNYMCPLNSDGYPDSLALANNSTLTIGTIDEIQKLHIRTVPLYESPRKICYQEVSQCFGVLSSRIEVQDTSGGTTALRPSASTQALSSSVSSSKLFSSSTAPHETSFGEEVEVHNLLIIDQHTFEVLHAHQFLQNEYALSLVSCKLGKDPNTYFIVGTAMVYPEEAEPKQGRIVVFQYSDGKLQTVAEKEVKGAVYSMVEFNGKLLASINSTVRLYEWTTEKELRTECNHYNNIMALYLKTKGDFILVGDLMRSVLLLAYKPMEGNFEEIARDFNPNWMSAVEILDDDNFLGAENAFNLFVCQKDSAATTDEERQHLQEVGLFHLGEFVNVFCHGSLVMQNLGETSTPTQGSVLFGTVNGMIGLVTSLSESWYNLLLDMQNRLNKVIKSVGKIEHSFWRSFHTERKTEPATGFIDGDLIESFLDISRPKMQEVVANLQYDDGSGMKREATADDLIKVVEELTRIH
In short: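 Jurkat cells carrying HiBiT-tagged IKZF2 were exposed to serially diluted compound for 24 h at 37 °C. Remaining IKZF2 was measured by Nano-Glo HiBiT lytic luminescence after 10-20 min at room temperature. Signal was normalized to DMSO, and IC50 came from a four-parameter variable-slope fit.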

IKZF2 [3] = biological target: T1, IKZF2; experiment: IKZF2 HiBit Assay (HEK293T Flp-in-HiBiT cells); format: cell-based; details: HEK293T Flp-in-HiBiT cells, 6 hrs; for DC50: read-out: IKZF2 HiBit degradation DC50; for Dmax: HEK-293T, read-out: IKZF2 HiBit degradation Dmax
In short: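 HEK293T Flp-in cells carrying CRISPR-inserted N-terminal HiBiT tag at the endogenous IKZF2 locus were treated with an 11-point, 3-fold dilution from 1 mM (stock) for 6 hrs; final DMSO 0.1%. HiBiT luminescence was detected after lysis with LgBiT/substrate reagent. DMSO-normalized curves gave 50% degradation concentration and Dmax.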

[4] = biological target: His tagged CRBN+DDB−DLS7+CXU4 (Homo sapiens (Human), UniProt Q96SW2); experiment: IC50 Measurements for Binding to CRBN/DDBI (HTRF); details: Cy5-labeled Thalidomide probe, one hour incubation
Chain of His tagged CRBN+DDB−DLS7+CXU4 (Q96SW2 whole entry): as the sequence (Q96SW2 whole entry) above
Chain of His tagged CRBN+DDB−DLS7+CXU4 (Q16531 whole entry partner): as the sequence (Q16531 whole entry partner) above

IKZF1 = IKZF1 (Homo sapiens (Human), UniProt Q13422+Q96SW2); experiment: IKZF1 HiBit Assay (HEK293T Flp-in-HiBiT-IKZF1 stable cell line); format: cell-based; details: HEK293T Flp-in-HiBiT-IKZF1 cells, 6 hrs; for DC50: read-out: IKZF1 HiBit degradation DC50; for Dmax: HEK-293T, read-out: IKZF1 HiBit degradation Dmax
Chain of IKZF1 (Q13422 whole entry): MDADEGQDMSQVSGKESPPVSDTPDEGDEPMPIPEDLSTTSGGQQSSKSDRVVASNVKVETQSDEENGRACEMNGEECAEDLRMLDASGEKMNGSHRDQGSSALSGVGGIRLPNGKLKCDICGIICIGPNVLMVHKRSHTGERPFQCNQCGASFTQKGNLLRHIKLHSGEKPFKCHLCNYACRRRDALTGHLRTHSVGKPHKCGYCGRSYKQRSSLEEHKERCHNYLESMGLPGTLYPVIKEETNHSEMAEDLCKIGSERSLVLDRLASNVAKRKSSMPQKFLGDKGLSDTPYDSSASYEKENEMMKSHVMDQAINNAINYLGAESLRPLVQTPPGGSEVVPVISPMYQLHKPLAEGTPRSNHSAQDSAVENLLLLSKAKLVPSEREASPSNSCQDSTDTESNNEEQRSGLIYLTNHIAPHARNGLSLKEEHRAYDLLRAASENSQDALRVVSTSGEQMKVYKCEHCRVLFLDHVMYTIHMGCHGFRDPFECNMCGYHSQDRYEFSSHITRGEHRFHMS
Chain of IKZF1 (Q96SW2 whole entry): as the sequence (Q96SW2 whole entry) above
Chain of IKZF1 (Q16531 whole entry partner): as the sequence (Q16531 whole entry partner) above
In short: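 HEK293T Flp-in cells with CRISPR-inserted N-terminal HiBiT tag treated 6 h with 11-point threefold dilutions (0.1% DMSO). Nano-Glo HiBiT lytic luminescence normalised to DMSO gave the 50%-degradation concentration; Dmax taken as the luminescence range from highest to lowest concentration.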

Chain of GST-tagged wild-type human CRBN protein (Q96SW2 whole entry): as the sequence (Q96SW2 whole entry) above

SMILES: O=C1CCC(N2Cc3c(ccc4c3OCC43CCN(Cc4cccc5ccccc45)CC3)C2=O)C(=O)N1 (centres unmarked) [Compound A27, 3-(1′-(naphthalen-1-ylmethyl)-6-oxo-6,8-dihydro-2H,7H-spiro[furo[2,3-e]isoindole-3,4′-piperidin]-7-yl)piperidine-2,6-dione]
- pIC50 [1]: 6.00 to 7.00
- DC50 (IKZF2 [2]): < 50 nM
- Dmax (IKZF2 [2]): > 80%

SMILES: Cn1cc2ccc(CN3CCC4(CC3)COc3c4ccc4c3CN(C3CCC(=O)NC3=O)C4=O)cc2n1 (centres unmarked) [Compound A69, 3-(1′-((2-methyl-2H-indazol-6-yl)methyl)-6-oxo-6,8-dihydro-2H,7H-spiro[furo[2,3-e]isoindole-3,4′-piperidin]-7-yl)piperidine-2,6-dione]
- pIC50 [1]: 6.00 to 7.00
- DC50 (IKZF2 [2]): < 50 nM
- Dmax (IKZF2 [2]): 60 to 80%

SMILES: Cn1cc(-c2cccc(CN3CCC4(CC3)COc3c4ccc4c3CN([C@H]3CCC(=O)NC3=O)C4=O)c2)cn1 [Compound A170, (S)-3-(1′-(3-(1-methyl-1H-pyrazol-4-yl)benzyl)-6-oxo-6,8-dihydro-2H,7H-spiro[furo[2,3-e]isoindole-3,4′-piperidin]-7-yl)piperidine-2,6-dione]
- pIC50 [1]: 6.00 to 7.00
- DC50 (IKZF2 [2]): < 50 nM
- Dmax (IKZF2 [2]): 60 to 80%

SMILES: O=C1CCC(N2Cc3c(ccc4c3OCC43CCN(Cc4cccc(F)c4)CC3)C2=O)C(=O)N1 (centres unmarked) [Compound A29, 3-(1′-(3-fluorobenzyl)-6-oxo-6,8-dihydro-2H,7H-spiro[furo[2,3-e]isoindole-3,4′-piperidin]-7-yl)piperidine-2,6-dione]
- pIC50 [1]: < 6.00
- DC50 (IKZF2 [2]): > 500 nM
- Dmax (IKZF2 [2]): 40 to 60%

SMILES: O=C1CCC(N2Cc3c(ccc4c3OCC43CCN(Cc4cccc(-c5cc[nH]n5)c4)CC3)C2=O)C(=O)N1 (centres unmarked) [Compound A160, 3-(1′-(3-(1H-pyrazol-3-yl)benzyl)-6-oxo-6,8-dihydro-2H,7H-spiro[furo[2,3-e]isoindole-3,4′-piperidin]-7-yl)piperidine-2,6-dione]
- pIC50 [1]: 7.00 to 8.00
- DC50 (IKZF2 [2]): < 50 nM
- Dmax (IKZF2 [2]): 60 to 80%

SMILES: O=C1CCC(N2Cc3c(ccc4c3OCC43CCN(Cc4cccc(Cn5cccn5)c4)CC3)C2=O)C(=O)N1 (centres unmarked) [Compound A126, 3-(1′-(3-((1H-pyrazol-1-yl)methyl)benzyl)-6-oxo-6,8-dihydro-2H,7H-spiro[furo[2,3-e]isoindole-3,4′-piperidin]-7-yl)piperidine-2,6-dione]
- pIC50 [1]: 6.00 to 7.00
- DC50 (IKZF2 [2]): 200 to 500 nM
- Dmax (IKZF2 [2]): 40 to 60%

SMILES: O=C1CCC(N2Cc3c(ccc4c3OCC43CCN(Cc4cccc(CO)c4)CC3)C2=O)C(=O)N1 (centres unmarked) [Compound A98, 3-(1′-(3-(hydroxymethyl)benzyl)-6-oxo-6,8-dihydro-2H,7H-spiro[furo[2,3-e]isoindole-3,4′-piperidin]-7-yl)piperidine-2,6-dione]
- pIC50 [1]: 6.00 to 7.00
- DC50 (IKZF2 [2]): 50 to 200 nM
- Dmax (IKZF2 [2]): 60 to 80%

SMILES: Cc1cc2c(c3c1C(=O)N([C@H]1CCC(=O)NC1=O)C3)OCC21CCN(Cc2cccc(-c3cnn(C)c3)c2)CC1 [Compound B20, (S)-3-(5-methyl-1′-(3-(1-methyl-1H-pyrazol-4-yl)benzyl)-6-oxo-6,8-dihydro-2H,7H-spiro[furo[2,3-e]isoindole-3,4′-piperidin]-7-yl)piperidine-2,6-dione]
- DC50 (IKZF2 [3]): > 1000 nM
- Dmax (IKZF2 [3]): 20 to 40%
- pIC50 [4]: 6.00 to 6.30
- DC50 (IKZF1): > 1000 nM
- Dmax (IKZF1): < 20%

SMILES: O=C1CC[C@H](N2Cc3c(ccc4c3OCC43CCN(Cc4cn(-c5ccc(Cl)cc5)nc4Cl)CC3)C2=O)C(=O)N1 [Compound B4, (S)-3-(1′-((3-chloro-1-(4-chlorophenyl)-1H-pyrazol-4-yl)methyl)-6-oxo-6,8-dihydro-2H,7H-spiro[furo[2,3-e]isoindole-3,4′-piperidin]-7-yl)piperidine-2,6-dione]
- DC50 (IKZF2 [3]): 1 to 10 nM
- Dmax (IKZF2 [3]): 60 to 80%
- pIC50 [4]: 6.00 to 6.30
- DC50 (IKZF1): > 1000 nM
- Dmax (IKZF1): < 20%

SMILES: O=C1CC[C@H](N2Cc3c(ccc4c3OCC43CCN(Cc4cccc5cn[nH]c45)CC3(F)F)C2=O)C(=O)N1 (some centres unmarked) [Compound B44]
- DC50 (IKZF2 [3]): 1 to 10 nM
- Dmax (IKZF2 [3]): > 80%
- pIC50 [4]: > 7.00
- DC50 (IKZF1): 100 to 1000 nM
- Dmax (IKZF1): 20 to 40%

SMILES: Cn1cc2cc(CN3CCC4(COc5c4ccc4c5CN([C@H]5CCC(=O)NC5=O)C4=O)C(F)(F)C3)ccc2n1 (stereo partly drawn) [Compound B37, (3S)-3-(3′,3′-difluoro-1′-((2-methyl-2H-indazol-5-yl)methyl)-6-oxo-6,8-dihydro-2H,7H-spiro[furo[2,3-e]isoindole-3,4′-piperidin]-7-yl)piperidine-2,6-dione]
- DC50 (IKZF2 [3]): 1 to 10 nM
- Dmax (IKZF2 [3]): 60 to 80%
- pIC50 [4]: > 7.00
- DC50 (IKZF1): > 1000 nM
- Dmax (IKZF1): < 20%

SMILES: Cn1cc2cccc(CN3CCC4(COc5c4ccc4c5CN([C@H]5CCC(=O)NC5=O)C4=O)C(F)(F)C3)c2n1 (stereo partly drawn) [Compound B36, (3S)-3-(3′,3′-difluoro-1′-((2-methyl-2H-indazol-7-yl)methyl)-6-oxo-6,8-dihydro-2H,7H-spiro[furo[2,3-e]isoindole-3,4′-piperidin]-7-yl)piperidine-2,6-dione]
- DC50 (IKZF2 [3]): 1 to 10 nM
- Dmax (IKZF2 [3]): 60 to 80%
- pIC50 [4]: 6.30 to 7.00
- DC50 (IKZF1): < 1 nM
- Dmax (IKZF1): 20 to 40%

SMILES: O=C1CC[C@H](N2Cc3c(ccc4c3OCC43CCN(Cc4ccc5c(c4)CC(=O)N5)CC3(F)F)C2=O)C(=O)N1 (stereo partly drawn) [Compound B28, (3S)-3-(3′,3′-difluoro-6-oxo-1′-((2-oxoindolin-5-yl)methyl)-6,8-dihydro-2H,7H-spiro[furo[2,3-e]isoindole-3,4′-piperidin]-7-yl)piperidine-2,6-dione]
- DC50 (IKZF2 [3]): 1 to 10 nM
- Dmax (IKZF2 [3]): 60 to 80%
- pIC50 [4]: 6.30 to 7.00
- DC50 (IKZF1): > 1000 nM
- Dmax (IKZF1): < 20%

SMILES: O=C1CC[C@H](N2Cc3c(ccc4c3OCC43CCN(Cc4ccc5[nH]ncc5c4)CC3(F)F)C2=O)C(=O)N1 (stereo partly drawn) [Compound B40, (3S)-3-(1′-((1H-indazol-5-yl)methyl)-3′,3′-difluoro-6-oxo-6,8-dihydro-2H,7H-spiro[furo[2,3-e]isoindole-3,4′-piperidin]7-yl) piperidine-2,6-dione]
- DC50 (IKZF2 [3]): 1 to 10 nM
- Dmax (IKZF2 [3]): 60 to 80%
- pIC50 [4]: 6.30 to 7.00
- DC50 (IKZF1): > 1000 nM
- Dmax (IKZF1): < 20%

SMILES: O=C1CC[C@H](N2Cc3c(ccc4c3OCC43CCN(Cc4cn(-c5ccc(Cl)cc5)nc4C(F)(F)F)CC3)C2=O)C(=O)N1 [Compound B5, (S)-3-(1′-((1-(4-chlorophenyl)-3-(trifluoromethyl)-1H-pyrazol-4-yl)methyl)-6-oxo-6,8-dihydro-2H,7H-spiro[furo[2,3-e]isoindole-3,4′-piperidin]-7-yl)piperidine-2,6-dione]
- DC50 (IKZF2 [3]): 1 to 10 nM
- Dmax (IKZF2 [3]): 60 to 80%
- pIC50 [4]: 6.30 to 7.00
- DC50 (IKZF1): > 1000 nM
- Dmax (IKZF1): < 20%

SMILES: O=C1CC[C@H](N2Cc3c(ccc4c3OCC43CCN(Cc4cnn(S(=O)(=O)c5ccccc5Cl)c4)CC3(F)F)C2=O)C(=O)N1 (stereo partly drawn) [Compound B29, (3S)-3-(1′-((1-((2-chlorophenyl)sulfonyl)-1H-pyrazol-4-yl)methyl)-3′,3′-difluoro-6-oxo-6,8-dihydro-2H,7H-spiro[furo[2,3-e]isoindole-3,4′-piperidin]-7-yl)piperidine-2,6-dione]
- DC50 (IKZF2 [3]): < 1 nM
- Dmax (IKZF2 [3]): > 80%
- pIC50 [4]: > 7.00
- DC50 (IKZF1): 1 to 10 nM
- Dmax (IKZF1): > 40%

SMILES: O=C1CC[C@H](N2Cc3c(ccc4c3OCC43CCN(Cc4cc(-c5ccc(Cl)cc5)ns4)CC3)C2=O)C(=O)N1 [Compound B3, (S)-3-(1′-((3-(4-chlorophenyl)isothiazol-5-yl)methyl)-6-oxo-6,8-dihydro-2H,7H-spiro[furo[2,3-e]isoindole-3,4′-piperidin]-7-yl)piperidine-2,6-dione]
- DC50 (IKZF2 [3]): 10 to 100 nM
- Dmax (IKZF2 [3]): 60 to 80%
- pIC50 [4]: > 7.00
- DC50 (IKZF1): > 1000 nM
- Dmax (IKZF1): < 20%
